For four compounds, MIC results are on record in US5834430A, “Potentiation of antibiotics” (BiosYnth S.r.l., priority 1995, dated 1998).

Where two headings read alike, the source gives them in different places.

Holding throughout (experiment): Checkerboard microdilution MIC of antibiotic with peptide
One experiment deals with E. coli IH3080. The class given is cell-based. The settings on record: Escherichia coli, no peptide (None, 0). As to the method:
(§1) The general assay medium was L broth (pH7.2) which contained 10 g of tryptone (Difco Laboratories, Detroit, Mich.), 5 g of yeast extract (Oxoid Ltd., Hampshire, UK) and 5 g of sodium chloride per liter. After an incubation time of 18 hours at 37° C., the growth of each microtiter well is measured with a Titerteck Multiscan spectrophotometer at 405 nm. Before reading, the spectrophotometer was blanked with corresponding uninoculated drug-containing media. The minimum inhibitory concentration (MIC) of an antibiotic was defined as the lowest concentration of the antibiotic expressed in mg/l which reduced the growth of the target bacteria by ≥90% (MIC90).

The test system of a further experiment is Ps. aeroginosa PAO1. Format: cell-based. The settings on record: Pseudomonas aeruginosa, no peptide (None, 0). As for the experimental part:
as §1

For a further experiment, the system named is Kl. pneumoniae 12854. The class given is cell-based. As for the experimental part:
as §1

The subject of a further experiment is E. cloa 12645. The class given is cell-based. The settings on record: Enterobacter cloacae, no peptide (None, 0). As to the method:
as §1

The subject of a further experiment is S. typhi SH5014. Format: cell-based, Salmonella typhimurium. As to the method: as §1
Where [1] appears, read: Experiment III, read-out: MIC Novobiocin.
Where [2] appears, read: Experiment II, read-out: MIC Fusidic a.
[3] abbreviates: Experiment I, read-out: MIC Rifampin.
Setting [4] is: Experiment IV, read-out: MIC Erythrom.

In the case of `CO[C@@H]1[C@@H](OC(N)=O)[C@@H](O)[C@H](Oc2ccc3c(O)c(NC(=O)c4ccc(O)c(CC=C(C)C)c4)c(=O)oc3c2C)OC1(C)C` [Novobiocin, novobiocin], the MIC in the experiment on E. coli IH3080 (setting [1]) was 30 µg/mL; in the experiment with Ps. aeroginosa PAO1 (setting [1]) it was greater than 30 µg/mL; in the experiment with Kl. pneumoniae 12854 (Klebsiella pneumoniae, 12854, read-out: MIC Novobiocin), 30 µg/mL; in the experiment with E. cloa 12645 (setting [1]), greater than 30 µg/mL; in the experiment with S. typhi SH5014 (read-out: MIC Novobiocin), 30 µg/mL.

For the compound `CC(=O)O[C@H]1C[C@@]2(C)[C@@H](C[C@@H](O)[C@H]3[C@@]4(C)CC[C@@H](O)[C@@H](C)[C@@H]4CC[C@@]32C)/C1=C(\CCC=C(C)C)C(=O)O` [Fusidic a., fusidic acid], the MIC was 300 µg/mL with E. coli IH3080 (setting [2]); greater than 300 µg/mL with Ps. aeroginosa PAO1 (setting [2]); greater than 300 µg/mL in the experiment on Kl. pneumoniae 12854 (Klebsiella pneumoniae, 12854, read-out: MIC Fusidic a.); greater than 300 µg/mL in the experiment on E. cloa 12645 (setting [2]); greater than 300 µg/mL with S. typhi SH5014 (read-out: MIC Fusidic a.).

Turning to `CO[C@H]1/C=C/O[C@@]2(C)Oc3c(C)c(O)c4c(O)c(c(/C=N/N5CCN(C)CC5)c(O)c4c3C2=O)NC(=O)/C(C)=C\C=C\[C@H](C)[C@H](O)[C@@H](C)[C@@H](O)[C@@H](C)[C@H](OC(C)=O)[C@@H]1C` [Rifampin, rifampin], the MIC is 10 µg/mL in the experiment on E. coli IH3080 (setting [3]); greater than 10 µg/mL with Ps. aeroginosa PAO1 (setting [3]); 10 µg/mL in the experiment on Kl. pneumoniae 12854 (Klebsiella pneumoniae, 12854, read-out: MIC Rifampin); 10 µg/mL in the experiment on E. cloa 12645 (setting [3]); 10 µg/mL with S. typhi SH5014 (read-out: MIC Rifampin).

Regarding `CC[C@H]1OC(=O)[C@H](C)[C@@H](O[C@H]2C[C@@](C)(OC)[C@@H](O)[C@H](C)O2)[C@H](C)[C@@H](O[C@@H]2O[C@H](C)C[C@H](N(C)C)[C@H]2O)[C@](C)(O)C[C@@H](C)C(=O)[C@H](C)[C@@H](O)[C@]1(C)O` [Erythrom., erythromycin], the MIC was 30 µg/mL in the experiment on E. coli IH3080 (setting [4]); 100 µg/mL in the experiment on Ps. aeroginosa PAO1 (setting [4]); greater than 100 µg/mL with Kl. pneumoniae 12854 (Klebsiella pneumoniae, 12854, read-out: MIC Erythrom.); greater than 100 µg/mL with E. cloa 12645 (setting [4]); 100 µg/mL in the experiment on S. typhi SH5014 (read-out: MIC Erythromycin.).
